Columns and labels:
[1] = test system: IL-6 mRNA; experiment: Quantitation of IL-6 mRNA expression by quantitative real-time PCR; format: cell-based, human; details: BP IgG-treated HaCaT cells; 0.1, 1, 10 μM; 48 h; RT-qPCR normalized to GAPDH
Procedure: (§1) IL-6 and IL-8 messenger RNA (mRNA) levels were quantitated using quantitative real-time polymerase chain reaction (qPCR) as reported previously. BP IgG-treated HaCaT cells were cultured with or without diacerein or berberine or clobetasol propionate for 48 h. Total RNA was isolated from cultured HaCaT cells using TRIzol reagent (LifeTechnologies) according to the manufacturer's instruction. Complementary DNA (cDNA) was reverse-transcribed from isolated RNA by incubating 1 μg of RNA with the RevertAid First Strand cDNA Synthesis Kit (Thermo Scientific) following the manufacturer's instructions. Quantitative RT-PCR was performed in a Mastercycler (Eppendorf) using SYBR® Select Master Mix (Life Technologies). PCR mixtures contained 0.5 μM of each forward and reverse primers. Each reaction mixture was subjected to 2 min at 50° C. and 2 min at 95° C. followed by 40 cycles with 15 seconds at 95° C. and 1 min at 60° C. Data were normalized to the housekeeping gene glyceraldehyde-3-phosphate dehydrogenase (GAPDH). The primers used in RT-PCR were as follows: IL-8 messenger RNA (mRNA), forward, 5′-ACCGGAAGGAACCATCTCAC-3′, and reverse, 5′-AAACTGCACCTTCACACAGAG-3′ and IL-6 messenger RNA (mRNA), forward, 5′-GGTACATCCTCGACGGCATCT-3′, and reverse, 5′-GTGCCTCTTTGCTGCTTTCAC-3′ and GAPDH, forward, 5′-ACAACTTTGGTATCGTGGAAGG-3′, and reverse, 5′-GCC ATC ACG CCA CAG TTT-3′.

[2] = test system: HaCaT cells; format: cell-based; details: 48 h, MTT
Procedure: HaCaT cells (CLS Cell Lines Service, Germany) were cultured in Dulbecco's modified eagle medium (DMEM) medium supplemented with 4.5 g/L glucose, 2 mM L-glutamine and 10% fetal bovine serum. Cells were seeded on 24- or 12-well plates and grown to 80% confluence for the following assays.
Exponentially growing cells of passage #3-6 (3000 cells/well in 100 μl medium) were plated in 96-well plates overnight to allow cell attachment (80% confluency) and then exposed to different concentrations of diacerein (0.1, 1, 10 μM) or berberine (0.1, 1, 10 μM) or clobetasol propionate (0.1, 1, 10 μM), and either 2 mg/mL of Healthy-IgG BP-IgG or Specific-IgG at 37° C. for 48 h.
Following drug treatment, the cell culture media were gently removed. Cells were then gently washed three times with warm medium to remove any de-attached and dead cells. Cells were incubated with MTT reagent in cell culture medium at a final concentration of 1.0 mg/mL for 2 h. The quantity of formazan (presumably directly proportional to the number of viable cells) was measured by recording changes in absorbance at 570 nm using an ELISA plate reader.

[3] = test system: IL-8 mRNA; experiment: Quantitation of IL-8 mRNA expression by quantitative real-time PCR; format: cell-based, human; details: BP IgG-treated HaCaT cells; 0.1, 1, 10 μM; 48 h; RT-qPCR normalized to GAPDH
Procedure: as §1

[4] = test system: IL-8; experiment: Pro-inflammatory cytokine measurement: IL-8 in culture supernatant by ELISA; format: cell-based, human; details: 48 h
Procedure: (§2) HaCaT cells (CLS Cell Lines Service, Germany) were cultured in Dulbecco's modified eagle medium (DMEM) medium supplemented with 4.5 g/L glucose, 2 mM L-glutamine and 10% fetal bovine serum. Cells were seeded on 24- or 12-well plates and grown to 80% confluence for the following assays. Cytokine measurement was conducted based on previous studies. Briefly, cells were incubated with medium alone or with 2 mg/mL purified BP-IgG or Specific-IgG and cultured in absence or presence of diacerein or berberine or clobetasol propionate (0.1, 1, and 10 μM) and culture supernatants were collected after 48 h of incubation, and stored for analysis at −20° C. IL-6 and IL-8 levels were analyzed in cell culture supernatants by ELISA (BD Biosciences) according to the manufacturer's instructions.

[5] = test system: IL-6; experiment: Pro-inflammatory cytokine measurement: IL-6 in culture supernatant by ELISA; format: cell-based, human; details: HaCaT cells treated with BP-IgG or specific anti-BP180 IgG 2 mg/mL; 0.1, 1, 10 μM; 48 h
Procedure: as §2

[6] = test system: BP180; experiment: Immunofluorescence study of BP180 internalization in keratinocytes treated with BP-IgG; format: cell-based, human; details: 0.1 to 10 μM, confocal microscopy
Procedure: For this BP180 internalization study, IgG purification from BP patients and cell culture treated with different IgG and drugs (diacerein or berberine) were performed according to the procedures described in Example 1. Keratinocytes grown on glass coverslips were fixed in 4% paraformaldehyde, washed thoroughly in PBS, and permeabilized in 0.1% (v/v) Triton X-100 in PBS for 10 minutes. Primary antibodies were overlaid onto the cells, and the preparations were incubated at room temperature for 1 hour. The cells on coverslips were washed with PBS, and fluorescence-conjugated secondary antibodies were applied for 1 hour at room temperature. After being washed with PBS, coverslips were mounted onto slides. The fluorescence color for cell nucleus was dark blue and BP180 was bright green. All preparations were examined by the confocal microscopy.

Compound: CCC(=O)O[C@]1(C(=O)CCl)[C@@H](C)C[C@H]2[C@@H]3CCC4=CC(=O)C=C[C@]4(C)[C@@]3(F)[C@@H](O)C[C@@]21C [clobetasol propionate]
- IL-6 mRNA expression levels [1]: significantly reduced the IL-6 and IL-8 mRNA expression levels
- cytotoxicity to HaCaT cells ([2]; treatment at 0.1-10 μM): did not have significant cytotoxicity
- IL-8 mRNA expression levels [3]: significantly reduced the IL-6 and IL-8 mRNA expression levels
- secretion of IL-8 ([4]; HaCaT cells treated with BP-IgG or Specific-IgG 2 mg/mL, 0.1, 1, 10 μM): reduced IL-6 (FIG. 1a) and IL-8 secretion (FIG. 1b) in a dose-dependent manner
- secretion of IL-6 [5]: reduced IL-6 (FIG. 1a) and IL-8 secretion (FIG. 1b) in a dose-dependent manner

Compound: COc1ccc2cc3[n+](cc2c1OC)CCc1cc2c(cc1-3)OCO2 [berberine, 5,6-dihydro-9,10-dimethoxybenzo(g)-1,3-benzodioxolo (5,6-a) quinolizinium]
- cytotoxicity to HaCaT cells ([2]; treatment at 0.1-10 μM): did not have significant cytotoxicity

Compound: CC(=O)Oc1cccc2c1C(=O)c1c(OC(C)=O)cc(C(=O)O)cc1C2=O [diacerein, 4,5-bis (acetyloxy) 9, 10-dihydro-4,5-dihydroxy-9, 10-dioxo-2-anthracenecarboxylic acid]
- membranous localization of BP180 (BP180 internalization) [6]: membranous localization of BP180 was restored
- IL-6 mRNA expression levels [1]: dose-dependent inhibitory effects on IL-6 mRNA expression levels
- HaCaT viability in presence of IgG ([2]; 10 μM, with Healthy-IgG, BP-IgG or BP Specific-IgG): still significantly reduced HaCaT viability
- HaCaT viability ([2]; treatment at 0.1-10 μM): 50%
- cytotoxicity to HaCaT cells ([2]; treatment at 0.1-10 μM): significant cytotoxicity
- IL-8 mRNA expression levels [3]: inhibitory effects on IL-8 mRNA only at 10 μM
- secretion of IL-8 ([4]; 0.1 μM, HaCaT cells treated with specific anti-BP180 IgG): did not reduce the secretion of IL-8
- secretion of IL-8 ([4]; 1 or 10 μM, HaCaT cells treated with specific anti-BP180 IgG): inhibitory effects of diacerein on IL-8 secretion were noted only at concentrations at 1 or 10 μM
- secretion of IL-6 [5]: significantly reduced secretion of IL-6

From patent publication US10675260B2, “Methods and pharmaceutical compositions for preventing or treating immunoinflammatory dermal disorders” (TWi Biotechnology, Inc., priority 2017, dated 2020)
